Experimental data published in patent publication US9018391B2, “Inhibitors of beta-secretase” (Boehringer Ingelheim International GmbH, priority 2012, dated 2015).

Key:
hERG channel = hERG channel (Homo sapiens (Human), UniProt Q12809); experiment: hERG-Channel Assay (Assay 2), whole-cell patch clamp in HEK293 cells stably transfected with hERG cDNA; type: cell-based; conditions: human, HEK293 cells stably transfected with hERG cDNA, pH 7.4, 35° C.
From the text: hERG-Channel Assay (Assay 2)
Cells: HEK (human embryonic kidney) 293 cells were stably transfected with hERG cDNA.
Cells were superfused with a bath solution containing (mM): NaCl (137), KCl (4.0), MgCl2 (1.0), CaCl2 (1.8), Glucose (10), HEPES (10), pH 7.4 with NaOH. Patch pipettes were made from borosilicate glass tubing using a horizontal puller and filled with pipette solution containing (mM): K-aspartate (130), MgCl2 (5.0), EGTA (5.0), K2ATP (4.0), HEPES (10.0), pH 7.2 with KOH. Resistance of the microelectrodes was in the range between 2 and 5 MΩ.
Stimulation and Recording:
Membrane currents were recorded using an EPC-10 patch clamp amplifier and PatchMaster software. hERG-mediated membrane currents were recorded at 35° C., using the whole-cell configuration of the patch-clamp technique. Transfected HEK293 cells were clamped at a holding potential of −60 mV and hERG-mediated inactivating tail currents were elicited using a pulse pattern with fixed amplitudes (activation/inactivation: 40 mV for 2000 ms; recovery: −120 mV for 2 ms; ramp to 40 mV in 2 ms; inactivating tail current: 40 mV for 50 ms) repeated at 15 s intervals. During each inter-pulse interval, 4 pulses scaled down by a factor of 0.2 were recorded for a P/n leak subtraction procedure. Rs compensation was employed up to a level that safely allowed recording devoid of ringing.
Compound Preparation and Application:
The different concentrations of the test compounds were applied sequentially on each of the different cells investigated. A steady state level of baseline current was measured for at least 6 sweeps prior to the application of the first test compound concentration.
The test compound was dissolved in DMSO to yield a master stock solution which was diluted further in DMSO to stock solutions needed for the lower concentrations. Final dilutions in extracellular buffer were prepared freshly from these stocks by a 1:1000 dilution step each before starting the experiments.
Peak current amplitudes were measured 3 ms after the ramp to +40 mV. For baseline and each concentration, the peak currents of the three last sweeps before application of the next concentration were averaged. Residual currents (I/I0) were calculated for each cell as the fraction of actual average peak current and average baseline peak current.

[1] = biological target: truncated human beta-secretase, BACE1 (amino acids 1-454) (Homo sapiens (Human), UniProt P56817); experiment: BACE1 Assay (Assay 1), fluorescence quench assay; type: biochemical; conditions: pH 4.4
Protocol: The substrate was dissolved at 1 mg/ml in DMSO.
The assay was performed in the presence of OptiMEM™ (supernatant collected over 24 h and cleared from cellular debris by centrifugation) containing the ectodomain of BACE1, 25 μl water containing the desired 2-fold concentration of test compound and 2% DMSO, 1 μM substrate peptide, 20 mM NaOAc, pH 4.4, and 0.04% Triton-X100 in a total assay volume of 50 μl in a 384 well plate. In general, 25 μl of compound dilution were added to the plate followed by the addition of 10 μl of BACE1 containing OptiMEM™ diluted 1:10 in water with 0.2% Triton X-100. The reaction was started with the addition of 15 μl substrate in NaOAc buffer. The reaction was incubated at rt (dark) in an Envision® multilabel reader (Perkin Elmer) and the cleavage of the substrate was recorded as kinetic for […] at ex: 485 nm, em: 538 nm. Blank wells containing no enzyme were included on each plate.
The intensity of fluorescence was regressed against time in order to derive velocities of reaction in all 384 wells. These velocities were used for calculating percent control using an uninhibited control containing 1% DMSO as 100% and a blank control performed in the absence of enzyme as 0%. IC50 values were calculated by fitting percent control vs. test compound concentration using Assay Explorer®.

[2] = In Vitro Phospholipidosis Assay (Assay 3), Nile red staining; type: cell-based, human; conditions: human, first effect concentration, U937 cells, read-out: Phospholipidosis FEC IC50 μM (assay 3)
Protocol: In Vitro Phospholipidosis Assay (Assay 3)
The phospholipidogenic potential of test compounds was assayed using the human hematopoetic U937 cell line. The test principle was to analyze the phospholipid content by staining the cells with the fluorescent dye Nile red.
U937 cells were seeded into cell culture plates at 0.5×10^6 cells/mL in RPMI medium containing 10% FBS, 1% DMSO, and 0.005% gentamicin. The cells were cultivated with or without different concentrations of test compound for 48 h under standard culture conditions.
For harvesting, the cells were centrifuged at 130×g for 4 min and washed once with PBS. Then, 2×0.5 mL cell suspensions were prepared for non-fixed cell measurement (0.5 mL for propidium iodide (PI) viability measurement and 0.5 mL for Nile red measurement).
The remaining cells were fixed with 3.7% formaldehyde for 30 min. After a further centrifugation step, cells were resuspended with 1.3 mL Nile red working solution (1 μg/mL) and incubated for 5 min at rt. The cell suspension was washed twice with 3 mL PBS and centrifuged with 130×g for 4 min. The supernatant was discarded and the cells were resuspended with 0.5 mL PBS and kept for flow cytometry measurement.
For Nile red staining of the 0.5 mL non-fixed cell samples, 50 μL of a ready to use Nile red solution (10 μg/mL) were added per sample. Samples were kept on ice for 5 min. Thereafter, they were washed once with 4 mL PBS (4° C., 250×g for 8 min) and finally resuspended in 400 μL PBS and kept for flow cytometry measurement.
For the viability measurement, 12.5 μL of the ready to use PI solution (10 μg/mL) were added to the 0.5 mL non-fixed cell suspension. After 15 min of incubation on ice, the samples were measured by flow cytometry using a Coulter Epics XL/MCL flow cytometer.
The viability of the cells of each sample was determined by flow cytometry measurement of the PI content at channel 2 (568-590 nm). Cut-off gates for the fluorescence-dependent differentiation between live and dead cells were defined based on the analysis of cell culture medium control samples.
Only samples with a cell viability of >=90% relative to control samples were analyzed for phospholipidosis. Each Nile red sample (non-fixed and fixed samples) was measured by flow cytometry at channel 1 (504-541 nm) and channel 4 (660-680 nm).
For each channel, relative Nile red fluorescence intensity of a test sample was calculated compared to control samples and expressed as a percentage of control fluorescence intensity. The assessment of the phospholipidogenic potential and the first effective concentration (FEC) of a test compound was done manually based on the fluorescence intensities at both wavelengths for the fixed cells, as well as for the non-fixed cells.

Sequence of truncated human beta-secretase, BACE1 (amino acids 1-454) (P56817 22-454): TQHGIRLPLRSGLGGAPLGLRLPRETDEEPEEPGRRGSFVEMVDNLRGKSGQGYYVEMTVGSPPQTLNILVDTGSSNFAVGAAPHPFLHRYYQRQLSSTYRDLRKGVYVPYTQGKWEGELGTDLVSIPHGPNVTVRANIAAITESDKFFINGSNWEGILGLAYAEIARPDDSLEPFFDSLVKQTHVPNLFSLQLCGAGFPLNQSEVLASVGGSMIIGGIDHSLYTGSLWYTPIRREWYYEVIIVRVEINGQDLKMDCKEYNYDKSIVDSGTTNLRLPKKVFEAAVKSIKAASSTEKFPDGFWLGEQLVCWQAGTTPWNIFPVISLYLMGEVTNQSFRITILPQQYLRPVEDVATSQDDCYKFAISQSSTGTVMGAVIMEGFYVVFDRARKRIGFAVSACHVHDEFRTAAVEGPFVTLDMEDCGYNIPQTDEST
Sequence of hERG channel (Q12809 whole entry): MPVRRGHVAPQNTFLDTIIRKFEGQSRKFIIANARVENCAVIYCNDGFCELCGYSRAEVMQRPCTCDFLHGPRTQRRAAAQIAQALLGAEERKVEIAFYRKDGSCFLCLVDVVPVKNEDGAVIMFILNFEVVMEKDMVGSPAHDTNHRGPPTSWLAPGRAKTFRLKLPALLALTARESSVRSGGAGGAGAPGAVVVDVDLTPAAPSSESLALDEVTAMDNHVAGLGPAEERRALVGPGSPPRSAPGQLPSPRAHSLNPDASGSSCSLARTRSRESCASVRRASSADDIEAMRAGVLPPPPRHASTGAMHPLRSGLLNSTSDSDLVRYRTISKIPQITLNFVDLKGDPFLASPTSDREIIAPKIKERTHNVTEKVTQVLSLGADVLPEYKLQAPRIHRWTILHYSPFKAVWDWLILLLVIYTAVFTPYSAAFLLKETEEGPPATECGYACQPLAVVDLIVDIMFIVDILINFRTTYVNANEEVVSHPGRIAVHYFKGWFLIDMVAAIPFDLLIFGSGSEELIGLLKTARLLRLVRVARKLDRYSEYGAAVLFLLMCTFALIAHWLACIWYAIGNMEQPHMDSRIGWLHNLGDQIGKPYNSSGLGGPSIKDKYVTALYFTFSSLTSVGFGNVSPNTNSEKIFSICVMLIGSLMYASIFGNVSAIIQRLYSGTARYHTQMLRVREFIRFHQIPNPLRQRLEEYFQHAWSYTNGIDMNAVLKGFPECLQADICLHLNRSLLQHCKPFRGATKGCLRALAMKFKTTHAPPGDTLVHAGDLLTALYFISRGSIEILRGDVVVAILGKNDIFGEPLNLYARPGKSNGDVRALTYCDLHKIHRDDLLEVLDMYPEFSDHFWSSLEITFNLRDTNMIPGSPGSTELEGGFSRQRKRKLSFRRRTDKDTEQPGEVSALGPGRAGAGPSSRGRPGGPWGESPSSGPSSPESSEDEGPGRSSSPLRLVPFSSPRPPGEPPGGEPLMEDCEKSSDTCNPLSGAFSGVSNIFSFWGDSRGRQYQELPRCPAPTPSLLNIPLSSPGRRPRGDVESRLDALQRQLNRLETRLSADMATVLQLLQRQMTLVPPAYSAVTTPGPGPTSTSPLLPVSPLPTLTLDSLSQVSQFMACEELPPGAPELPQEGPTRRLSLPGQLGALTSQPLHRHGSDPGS

| Compound | inhibition at 10 µM (hERG channel) [%] | IC50 [1] [nM] | IC50 at 48 h [2] [µM] |
| --- | --- | --- | --- |
| C[C@@H]1C[C@@]2(Cc3ccc(C#N)cc3[C@]23N=C(N)N(CC2(F)CCOCC2)C3=O)C[C@H](C)[C@H]1O [Example 4] | 13 | 2.7 | 800 |
| CC[C@@H]1C[C@@]2(Cc3ccc(C#N)cc3[C@]23N=C(N)N(CC(C)(C)F)C3=O)C[C@H](C)[C@H]1O [Example 7] | 15 | 3.4 | 400 |
| C[C@@H]1C[C@@]2(Cc3ccc(C#N)cc3[C@]23N=C(N)N(CC(C)(C)F)C3=O)C[C@H](C)[C@H]1O [Example 2] | 4.5 | 10.3 | 400 |
| CC[C@@H]1C[C@]2(CC[C@H]1O)Cc1ccc(C#N)cc1[C@]21N=C(N)N(CC(C)(C)F)C1=O [Example 9] | 2.5 | 10.7 | 400 |
| C[C@@H]1C[C@@]2(Cc3ccc(C#N)cc3[C@]23N=C(N)N(CCC(F)(F)F)C3=O)C[C@H](C)[C@H]1O [Example 1] | 13 | 14.6 | 400 |
